System: Boophilus microplus, Biarra-Stamm
Experiment: Tick test (Zeckentest): in vitro test for inhibition of egg laying after dipping adult engorged female ticks
Format: in vivo
Conditions: Rhipicephalus microplus, 480 h, resistant Biarra strain, 1 min dip, read after 20 days, read-out: 50 % Hemmung bei einer Wirkstoffkonzentration in ppm a.i. von
From the text: Lösungsmittel: 35 Gewichtsteile Ethylenglykolmonomethylether 35 Gewichtsteile Nonylphenolpolyglykolether
Zwecks Herstellung einer geeigneten Formulierung vermischt man drei Gewichtsteile Wirkstoff mit sieben Teilen des oben angegebenen Lösungsmittel-Emulgator-Gemisches und verdünnt das so erhaltene Emulsionskonzentrat mit Wasser auf die jeweils gewünschte Konzentration.
In diese Wirkstoffzubereitungen werden adulte, vollgesogene Zeckenweibchen der Art Boophilus microplus (resistent) eine Minute lang getaucht. Nach dem Tauchen von je 10 weiblichen Exemplaren überführt man diese in Petrischalen, deren Boden mit einer entsprechend großen Filterscheibe belegt ist.
Nach 20 Tagen wird die Wirksamkeit der Wirkstoffzubereitung bestimmt durch Ermittlung der Hemmung der Eiablage gegenüber unbehandelten Kontrollzecken. Die Wirkung drückt man in Prozent aus, wobei 100 % bedeutet, daß keine Eier mehr abgelegt wurden und 0 % besagt, daß die Zecken Eier in normaler Menge ablegten.
Untersuchter Wirkstoff, geprüfte Konzentrationen, getestete Parasiten und erhaltene Befunde gehen aus der folgenden Tabelle hervor.

Cc1cc(Cl)ccc1NC(=S)N(C)C [Chloromethiuron]
IC50: > 5000 µg/mL

From EP0073394A1, “2-Arylazo-2-imidazolines, acyl derivatives of the same, process for their preparation and the use in the control of ectoparasites and/or endoparasites” (BAYER AG, priority 1981, dated 1983)
